Assay [1] has as its system HC11 cells. The assay can be described thus: FACS DNA content analysis of HC11 cells during lactogenic differentiation. The assay is classed as cell-based, mouse. The conditions noted are these: HC11, doxorubicin 50 nM. On the procedure: The HC11 cell line was obtained from American Type Culture Collection (ATCC) and routinely checked for mycoplasma (Mycoplasma PCR kit, ABM, G238). Undifferentiated HC11 cells were cultured in growing medium (RPMI-1640; Thermo Fisher Scientific, 72400047), supplemented with 10% FBS, 5 μg/ml insulin (Millipore-Sigma, 16634), 10 ng/ml epidermal growth factor (EGF; Preprotech, AF-100-15) and 1× AntiAnti (Thermo Fisher Scientific, 15240112) at 37° C. with 5% CO2. Cells were grown to confluency and maintained in growing medium for 2 days, until they became competent. Competent HC11 cells were primed for differentiation by culturing them in priming medium [RPMI-1640 supplemented with 5 μg/ml insulin, 1 μM dexamethasone (Millipore-Sigma, D4902-1 G) and 1× Anti-Anti] for 24 h at 37° C. with 5% CO2. To induce differentiation, primed HC11 cells were cultured in DIP Medium [RPMI-1640, supplemented with 10% FBS, 5 μg/ml insulin, 1 μM dexamethasone, 1× anti-anti and 3 μg/ml Prolactin (NHPP, oPRL-21)] at 37° C. with 5% CO2.
[…] Drugs were maintained through the differentiation process and added with every change of media.
For DNA content analysis of the mammary gland CK8^+ epithelial population, mammary gland cells suspension was obtained as described above. Cells were fixed in ice-cold 70% EtOH at a final concentration of 10^6 cells/ml. During fixation, cells were vigorously vortexed for 1 min to avoid the formation of cell aggregates. Cells were washed twice with washing buffer [1×PBS containing 5% FBS and 0.5% tween 20 (Fisher Chemical, BP337500)] and centrifuged at 2,000 rpm for 5 min at 4° C. Cell pellet was incubated for 1 h at room temperature with anti-CK8 (Developmental Studies Hybridoma Lab, TROMA-1), anti-GFP (Thermo Fisher, A01704) or corresponding rat (Thermo-Fisher, 10700) or rabbit (Thermo-Fisher, 10500C) IgG isotype controls. Cells were washed twice and incubated for 1 h at room temperature in darkness with FITC anti-Rat (Thermo Fisher, A24544) or FITC anti-Rabbit (Thermo Fisher, A16030) and APC anti-Rat (Jackson ImmunoResearch, 712-136-153). Cells were washed twice and resuspended in propidium iodide solution [1×PBS containing 25 μg/ml of propidium iodide (Thermo Fisher, P3566) and 100 μg/ml of RNAse (Thermo Fisher, 12091021)]. For DNA content analysis on HC11, cells were washed with 1×DPBS (GIBCO, 14190-250) and harvested using 0.05% Trypsin-EDTA (GIBCO, 25300-062). Cell suspension was washed with 1×DPBS and centrifuged at 1,000 rpm for 5 min at 4° C. Cell pellet was fixed in ice-cold 70% EtOH and then vortexed vigorously to avoid cell aggregates. After fixation, cells were washed with washing buffer [1×PBS (GIBCO, 14190136) supplemented with 5% FBS] and centrifuged at 2,000 rpm for 5 min at 4° C. The pellet was resuspended in propidium iodide solution. Cell suspensions were filtered through a 70 μm cell strainer (Falcon, 08-771-2) and analyzed using a BD LSRII cytometer or a BD FACS Aria II Cell Sorter. Populations were analyzed using FlowJo.

Assay [2] deals with Wee1. The assay can be described thus: Contralateral intraductal injection: Wee1 expression in whole MG tissue by RT-qPCR. The assay is classed as in vivo, mouse. To be noted: IDI of doxorubicin into pregnant MG vs contralateral DMSO. On the procedure: Nulliparous analysis was performed using adult (10-12-week-old) female mice. For timed pregnancies and lactation analysis, CD-1 pregnant adult females were obtained from Charles Rivers. Embryos were examined at the time of mammary gland harvesting to confirm pregnancy state. […] Plugged mice were considered to be PD0.5 on the day of the observed plug. All females used in this study were age matched.
Mice were anesthetized with isoflurane (VetOne, 501017) Prior to intraductal injections, hair was removed from around the nipples using Nair hair remover. Injections into the duct of the nipple were performed with 33 G needles (Hamilton, 7803-05) and a volume of 40 μl per gland. […]
For RNA isolation from FACS purified populations, mammary gland cell suspensions were blocked using Mouse BD Fc Block™ (BD Biosciences) for 10 min. […] Total RNA quality was analyzed by agarose gel electrophoresis and quantified using an ND-1000 spectrophotometer (NanoDrop). cDNA was prepared from 500-1000 ng of total RNA using iScript cDNA synthesis kit (Bio-Rad, 1708841). Quantitative RT-qPCR was performed in triplicates using SsoAdvanced Universal SYBR Green Supermix, (Bio-Rad, 1725272). […]

The structures appear in SMILES notation.

As for `COc1cccc2c1C(=O)c1c(O)c3c(c(O)c1C2=O)C[C@@](O)(C(=O)CO)C[C@@H]3O[C@H]1C[C@H](N)[C@H](O)[C@H](C)O1` [doxorubicin], the “polyploidization (FACS DNA content)” value in assay [1] (DIP3) is “increase in polyploidization”. Also, in assay [1] (after 24 h), the “proportion of tetraploid cells (FACS DNA content)” value is on record as “increases”. For the same compound, in assay [2], the “Wee1 expression in whole MG tissue, RT-qPCR” value is reported as “upregulated”.

Source of the values: patent publication US20240374626A1, “METHODS OF ENHANCING MILK PRODUCTION IN LACTATING MAMMALIAN SUBJECTS” (priority 2023, published 2024).
